From patent US20100256104A1, “NOVEL AMIDE COMPOUNDS” (ASTRAZENECA R&D, priority 2009, published 2010)

Each molecule was assayed against T1, recombinant human GR (Homo sapiens, UniProt P04150) (assay: Human Glucocorticoid Receptor (GR) Assay, fluorescence polarization competition with GS Red tracer). Details: 2 hours at room temperature, 100% control 10 μM Dexamethasone, XLfit model 205, read-out: Inhibition of GR binding, IC50.
T1 construct: purchased Panvera/Invitrogen P2812 (kit P2893)
T1 sequence (P04150 1-777): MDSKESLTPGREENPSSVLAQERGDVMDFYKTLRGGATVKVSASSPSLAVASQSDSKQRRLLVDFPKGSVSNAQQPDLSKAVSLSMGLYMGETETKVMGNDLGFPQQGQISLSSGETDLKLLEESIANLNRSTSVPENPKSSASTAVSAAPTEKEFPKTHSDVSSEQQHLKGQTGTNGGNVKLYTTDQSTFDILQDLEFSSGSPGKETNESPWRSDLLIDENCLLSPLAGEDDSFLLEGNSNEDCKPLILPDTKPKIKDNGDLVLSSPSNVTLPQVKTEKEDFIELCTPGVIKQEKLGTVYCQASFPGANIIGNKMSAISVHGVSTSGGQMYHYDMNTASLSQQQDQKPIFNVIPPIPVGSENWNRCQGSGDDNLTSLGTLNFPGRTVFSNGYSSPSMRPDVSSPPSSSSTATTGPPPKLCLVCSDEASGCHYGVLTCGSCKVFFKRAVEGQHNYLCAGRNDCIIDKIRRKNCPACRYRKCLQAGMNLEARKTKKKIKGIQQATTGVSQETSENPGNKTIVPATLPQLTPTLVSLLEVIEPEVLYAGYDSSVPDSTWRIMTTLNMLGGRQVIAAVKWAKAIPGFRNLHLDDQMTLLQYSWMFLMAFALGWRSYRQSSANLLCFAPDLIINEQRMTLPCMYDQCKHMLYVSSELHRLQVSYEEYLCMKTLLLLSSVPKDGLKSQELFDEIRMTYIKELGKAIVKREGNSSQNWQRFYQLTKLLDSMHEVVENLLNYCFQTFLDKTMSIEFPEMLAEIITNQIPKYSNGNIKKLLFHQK
Procedure, shortened: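 Fluorescence polarization competition: recombinant human GR with GS Red tracer, stabilizing peptide and DTT in potassium phosphate/sodium molybdate/EDTA buffer. 2 h in dark at room temperature, read at ex 530/em 590 nm. Controls: DMSO (0%) and 10 μM dexamethasone (100%).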

IC50 [nM] | Structure (SMILES)
2.8 | CCC(=O)O[C@]1(C(=O)SCF)[C@H](C)C[C@H]2[C@@H]3CCC4=Cc5c(cnn5-c5cccc(C(=O)N[C@@H](C)C(N)=O)c5)C[C@]4(C)[C@@]3(F)[C@@H](O)C[C@@]21C [Example 25, (1R,2R,3aS,3bS, 10aS,10bR,11S,12aS)-7-(3-{[(1S)-2-amino-1-methyl-2-oxoethyl]carbamoyl}phenyl)-10b-fluoro-1-{[(fluoromethyl)-sulfanyl]carbonyl}-11-hydroxy-2,10a,12a-trimethyl-1,2,3,3a,3b,4,5,7,10, 10a,10b,11,12,12a-tetradecahydrocyclo-penta[5,6]naphtho [1,2-f]indazol-1-yl propanoate]
6.9 | CCC(=O)O[C@]1(C(=O)SCCO)CC[C@H]2[C@@H]3CCC4=Cc5c(cnn5-c5cccc(C(=O)N6CCC[C@@H]6C(N)=O)c5)C[C@]4(C)[C@@]3(F)[C@@H](O)C[C@@]21C [Example 58, (1R,3aS,3bS,10aS, 10bR,11S,12aS)-7-(3-{[(2R)-2-carbamoyl-pyrrolidin-1-yl]carbonyl}phenyl)-10b-fluoro-11-hydroxy-1-{[(2-hydroxyethyl)sulfanyl]carbonyl}-10a,12a-dimethyl-1,2,3,3a,3b,4,5,7,10, 10a,10b,11,12,12a-tetradecahydrocyclo-penta[5,6]naphtho [1,2-f]indazol-1-yl propanoate]
1.9 | CCC(=O)O[C@]1(C(=O)SCF)[C@H](C)C[C@H]2[C@@H]3CCC4=Cc5c(cnn5-c5cccc(C(=O)NCc6cccnc6)c5)C[C@]4(C)[C@@]3(F)[C@@H](O)C[C@@]21C [Example 43, (1R,2R,3aS,3bS, 10aS,10bR,11S,12aS)-10b-fluoro-1-{[(fluoromethyl)sulfanyl]carbonyl}-11-hydroxy-2,10a,12a-trimethyl-7-{3-[(pyridin-3-ylmethyl)carbamoyl]phenyl}-1,2,3,3a,3b,4,5,7,10, 10a,10b,11,12,12a-tetradecahydrocyclo-penta[5,6]naphtho [1,2-f]indazol-1-yl propanoate]
1 | CCC(=O)O[C@]1(C(=O)SCC#N)CC[C@H]2[C@@H]3CCC4=Cc5c(cnn5-c5cccc(C(=O)NCCOC)c5)C[C@]4(C)[C@H]3[C@@H](O)C[C@@]21C [Example 1, (1R,3aS,3bS,10aR,10bS,11S,12aS)-1-{[(Cyanomethyl)sulfanyl]carbonyl}-11-hydroxy-7-{3-[(2-methoxyethyl)carbamoyl]phenyl}-10a,12a-dimethyl-1,2,3,3a,3b,4,5,7,10,10a,10b,11,12,12a-tetradecahydrocyclopenta[5,6]naphtho[1,2-f]indazol-1-yl propanoate]
3.6 | CCC(=O)O[C@]1(C(=O)SCF)CC[C@H]2[C@@H]3CCC4=Cc5c(cnn5-c5cccc(C(=O)NC6CCCC6)c5)C[C@]4(C)[C@H]3[C@@H](O)C[C@@]21C [Example 62, (1R,3aS,3bS,10aR, 10bS,11S,12aS)-7-[3-(cyclopentylcarbamoyl)phenyl]-1-{[(fluoromethyl)sulfanyl]carbonyl}-11-hydroxy-10a,12a-dimethyl-1,2,3,3a,3b,4,5,7,10, 10a,10b,11,12,12a-tetradecahydrocyclo-penta[5,6]naphtho [1,2-f]indazol-1-yl propanoate]
4.2 | C[C@]12Cc3cnn(-c4cccc(C(=O)N5CCC[C@@H]5C(N)=O)c4)c3C=C1CC[C@H]1[C@@H]3CC[C@](OC(=O)C4CC4)(C(=O)SCC#N)[C@@]3(C)C[C@H](O)[C@@]12F [Example 54, (1R,3aS,3bS,10aS, 10bR,11S,12aS)-7-(3-{[(2R)-2-carbamoyl-pyrrolidin-1-yl]carbonyl}phenyl)-1-{[(cyanomethyl)sulfanyl]carbonyl}-10b-fluoro-11-hydroxy-10a,12a-dimethyl-1,2,3,3a, 3b,4,5,7,10,10a,- 10b,11,12,12a-tetradeca-hydrocyclo-penta[5,6]naphtho [1,2-f]indazol-1-yl cyclopropanecarboxylate]
0.81 | CCC(=O)O[C@]1(C(=O)SCF)CC[C@H]2[C@@H]3CCC4=Cc5c(cnn5-c5cccc(C(=O)NCCOC)c5)C[C@]4(C)[C@H]3[C@@H](O)C[C@@]21C [Example 2, (1R,3aS,3bS,10aR,10bS,11S,12aS)-1-{[(Fluoromethyl)sulfanyl]carbonyl}-11-hydroxy-7-{3-[(2-methoxyethyl)carbamoyl]phenyl}-10a,12a-dimethyl-1,2,3,3a,3b,4,5,7,10,10a,10b,11,12,12a-tetradecahydrocyclopenta[5,6]naphtho[1,2-f]indazol-1-yl propanoate]
1.6 | COCCNC(=O)c1cccc(-n2ncc3c2C=C2CC[C@@H]4[C@H]([C@@H](O)C[C@@]5(C)[C@H]4CC[C@]5(OC(=O)COC)C(=O)SCF)[C@@]2(C)C3)c1 [Example 3, (1R,3aS,3bS,10aR,10bS,11S,12aS)-1-{[(Fluoromethyl)sulfanyl]carbonyl}-11-hydroxy-7-{3-[(2-methoxyethyl)carbamoyl]phenyl}-10a,12a-dimethyl-1,2,3,3a,3b,4,5,7,10,10a,10b,11,12,12a-tetradecahydrocyclopenta[5,6]naphtho[1,2-f]indazol-1-yl methoxyacetate]
5.3 | COCC(=O)O[C@]1(C(=O)SCF)[C@H](C)C[C@H]2[C@@H]3CCC4=Cc5c(cnn5-c5cccc(C(=O)NCC(N)=O)c5)C[C@]4(C)[C@@]3(F)[C@@H](O)C[C@@]21C [Example 45, (1R,2R,3aS,3bS, 10aS,10bR,11S,12aS)-7-{3-[(2-amino-2-oxoethyl)carbamoyl]phenyl}-10b-fluoro-1-{[(fluoromethyl)sulfanyl]carbonyl}-11-hydroxy-2,10a,12a-trimethyl-1,2,3,3a,3b,4,5,7,10, 10a,10b,11,12,12a-tetradecahydrocyclo-penta[5,6]naphtho [1,2-f]indazol-1-yl methoxyacetate]
2 | CCC(=O)O[C@]1(C(=O)SCF)[C@H](C)C[C@H]2[C@@H]3CCC4=Cc5c(cnn5-c5cccc(C(=O)N[C@H](C)C(N)=O)c5)C[C@]4(C)[C@@]3(F)[C@@H](O)C[C@@]21C [Example 26, (1R,2R,3aS,3bS, 10aS,10bR,11S,12aS)-7-(3-{[(1R)-2-amino-1-methyl-2-oxoethyl]carbamoyl}phenyl)-10b-fluoro-1-{[(fluoromethyl)-sulfanyl]carbonyl}-11-hydroxy-2,10a,12a-trimethyl-1,2,3,3a,3b,4,5,7,10, 10a,10b,11,12,12a-tetradecahydrocyclo-penta[5,6]naphtho [1,2-f]indazol-1-yl propanoate]
2.2 | CCC(=O)O[C@]1(C(=O)SCF)CC[C@H]2[C@@H]3CCC4=Cc5c(cnn5-c5cccc(C(=O)NCC(N)=O)c5)C[C@]4(C)[C@@]3(F)[C@@H](O)C[C@@]21C [Example 44, (1R,3aS,3bS,10aS, 10bR,11S,12aS)-7-{3-[(2-amino-2-oxoethyl)carbamoyl]phenyl}-10b-fluoro-1-{[(fluoromethyl)sulfanyl]carbonyl}-11-hydroxy-10a,12a-dimethyl-1,2,3,3a,3b,4,5,7,10, 10a,10b,11,12,12a-tetradecahydrocyclo-penta[5,6]naphtho [1,2-f]indazol-1-yl propanoate]
2.3 | CNC(=O)c1cccc(-n2ncc3c2C=C2CC[C@H]4[C@@H]5C[C@@H](C)[C@](OC(=O)COC)(C(=O)SCF)[C@@]5(C)C[C@H](O)[C@]4(F)[C@@]2(C)C3)c1 [Example 28, 1R,2R,3aS,3bS, 10aS,10bR,11S,12aS)-10b-fluoro-1-{[(fluoromethyl)sulfanyl] carbonyl}-11-hydroxy-2,10a,12a-trimethyl-7[3-(methylcarbamoyl)phenyl]-1,2,3,3a,3b,4,5,7,10, 10a,10b,11,12,12a-tetradecahydrocyclo-penta[5,6]naphtho [1,2-f]indazol-1-yl methoxyacetate]
5.2 | CCC(=O)O[C@]1(C(=O)SCF)CC[C@H]2[C@@H]3CCC4=Cc5c(cnn5-c5cccc(C(=O)NC)c5)C[C@]4(C)[C@@]3(F)[C@@H](O)C[C@@]21C [Example 33, (1R,3aS,3bS,10aS, 10bR,11S,12aS)-10b-fluoro-1-{[(fluoromethyl)sulfanyl]carbonyl}-11-hydroxy-10a,12a-dimethyl-7[3-(methylcarbamoyl)phenyl]-1,2,3,3a,3b,4,5,7,10, 10a,10b,11,12,12a-tetradecahydrocyclo-penta[5,6]naphtho [1,2-f]indazol-1-yl propanoate]
1.7 | CCC(=O)O[C@]1(C(=O)SCC#N)CC[C@H]2[C@@H]3CCC4=Cc5c(cnn5-c5cccc(C(=O)NCCSC)c5)C[C@]4(C)[C@H]3[C@@H](O)C[C@@]21C [Example 6, (1R,3aS,3bS,10aR,10bS,11S,12aS)-1-{[(Cyanomethyl)sulfanyl]carbonyl}-11-hydroxy-10a,12a-dimethyl-7-(3-{[2-(methylsulfanyl)ethyl]carbamoyl}phenyl)-1,2,3,3a,3b,4,5,7,10,10a,10b,11,12,12a-tetradecahydrocyclopenta[5,6]naphtho[1,2-f]indazol-1-yl propanoate]
